Reference: patent US20210177992A1, “ANTICANCER FLUORESCENT SUBSTANCE DERIVED FROM NATURAL MATERIALS” (SEOUL NATIONAL UNIVERSITY R&DB FOUNDATION, priority 2017, published 2021)

Key:
MCF10A = assay: Annexin V FACS apoptosis measurement; type: cell-based; details: MCF10A normal cell, 24 hours
Description: (§1) Cancer cell apoptotic effects of resveratrone and resveratrone glucoside (see U.S. Pat. No. 9,708,23762) were measured by FACS using Annexin-V binding to phosphatidiylserine (PS) which exists in the inner leaflet of the cytoplasmic membrane and is exposed to the outer leaflet of cell membrane during apoptosis.
(§2) In detail, apoptosis of normal cells or cancer cells, each treated with resveratrone or resveratrone glucoside, was evaluated by measuring signals of Alexa dye-conjugated annexin V using FACS. HeLa, MCF7, SW480, SW620, and HCC1954 which are cancer cells, and NIH3T3 and MCF10A which are normal cells, each treated with 50 μM resveratrone or 100 μM resveratrone glucoside, were cultured under conditions of 37° C. and 5% CO2 for 24 hours. Thereafter, media was removed, and the cells were washed with PBS buffer twice to remove remaining resveratrone or resveratrone glucoside. The cells were collected and centrifuged to remove supernatants. Annexin-bound buffer (10 mM HEPES, 140 mM NaCl, 2.5 mM CaCl2, pH 7.4) was added and resuspended. 5 μl of Alexa Fluor 647-conjugated annexin V was added to the resuspended cells at the cell volume of 100 μl, followed by incubation for 15 minutes. 1 ml of binding buffer was added to the incubated cells, followed by centrifugation. The supernatant was removed to remove remaining Alexa Fluor 647-conjugated annexin V. Thereafter, 500 μl of annexin-binding buffer was further added, and cells were passed through a cell strainer cap and stored in a round-bottom tube.

MCF7 = assay: Annexin V FACS apoptosis measurement; type: cell-based; details: MCF7 cancer cell, 24 hours
Description: as §1, §2

cancer cells = assay: Annexin V FACS, apoptotic cells in cancer cells compared with normal cells; type: cell-based; details: 100 μM resveratrone glucoside, 24 hours
Description: as §1
as §2, with “The supernatant was removed to remove remaining Alexa Fluor 647-conjugated annexin V. Thereafter, 500 μl of annexin-binding buffer was further added, and cells were passed through a cell strainer cap and stored in a round-bottom tube.” left out

cancer cell MCF7 [1] = assay: TUNEL assay; type: cell-based; details: MCF7, 50 μM, 24 hours
Description: (§3) In detail, a cancer cell MCF7 and a normal cell MCF10A were treated with 50 μM of resveratrone or resveratrone glucoside, respectively, and incubated for 24 hours. Thereafter, the cells were treated with 0.5% PBS-Triton X-100 and incubated for 10 minutes to increase cell permeability. The cells were treated with terminal deoxynucleotide transferase and tetra-methyl-rhodamine dUTP, followed by incubation at 37° C. for 1 hour. Next, the cells were washed with PBS three times, and treated with DAPI dye for nuclear counterstaining. Apoptotic signals were observed using fluorescence images.

normal cell MCF10A [2] = assay: TUNEL assay; type: cell-based; details: 50 μM, 24 hours
Description: as §3

zebrafish embryos = assay: Cytotoxicity and fluorescence in zebrafish embryos; type: in vivo; details: 300 μM, observed at 2 hr, 20 hr, 48 hr, 72 hr
Description: In detail, zebrafish embryos (donated by Hyunsook Lee Lab, School of Biological Sciences, Seoul National University) were cultured, and treated with 300 μM of resveratrone or resveratrone glucoside. At 2 hr, 20 hr, 48 hr, and 72 hr after treatment, their changes were observed.

HCC1954 = assay: Annexin V FACS apoptosis measurement; type: cell-based; details: HCC1954 cancer cell, 50 μM resveratrone, 24 hours
Description: as §1, §2

HeLa = assay: Annexin V FACS apoptosis measurement; type: cell-based; details: HeLa cancer cell, 50 μM resveratrone, 24 hours
Description: as §1, §2

NIH3T3 = assay: Annexin V FACS apoptosis measurement; type: cell-based; details: NIH3T3 normal cell, 50 μM resveratrone, 24 hours
Description: as §1, §2

SW480 = assay: Annexin V FACS apoptosis measurement; type: cell-based; details: SW480 cancer cell, 50 μM resveratrone, 24 hours
Description: as §1, §2

SW620 = assay: Annexin V FACS apoptosis measurement; type: cell-based; details: SW620 cancer cell, 50 μM resveratrone, 24 hours
Description: as §1, §2

cancer cell MCF7 [3] = assay: Western blotting for cleaved parp; type: cell-based; details: MCF7, 50 μM, 48 hours
Description: (§4) In detail, a cancer cell MCF7 and a normal cell MCF10A were treated with 50 μM of resveratrone, respectively, and incubated for 48 hours. The incubated cells were harvested and lysed with a NETN buffer (150 mM NaCl, 20 mM Tris/Cl pH 8.0, 0.5% v/v NP-40, 1 mM EDTA) containing a protease inhibitor, and then conjugated with a cleaved parp antibody, and sequentially, with a secondary antibody. Then, the presence or absence thereof was examined.

normal cell MCF10A [4] = assay: Western blotting for cleaved parp; type: cell-based; details: 50 μM, 48 hours
Description: as §4

cancer cell MCF7 [5] = assay: Cell morphology by optical microscopy; type: cell-based; details: MCF7, 50 μM, 48 hours
Description: (§5) In detail, a normal cell MCF10A and a cancer cell MCF7 were treated with 50 μM of resveratrone, respectively, and incubated for 48 hours. After incubation, media was removed, and the cells were washed with PBS buffer three times. Changes of cell morphology in PBS buffer were observed and compared by optical microscopy.

normal cell MCF10A [6] = assay: Cell morphology by optical microscopy; type: cell-based; details: 50 μM, 48 hours
Description: as §5

[7] = tested on: organoids having G12D mutation of Kras gene; assay: Apoptosis in pancreatic organoids; type: cell-based, mouse; details: treatment repeated after 72 hr, read 12 hr after final treatment
Description: In detail, as an alternative to a pancreatic tissue of a wild-type mouse and an individual with cancer, a pancreatic tissue having G12D mutation of Kras gene was obtained from a transgenic mouse, and the pancreatic tissue was dissociated with a dissociation solution, filtered. Then, a cell pellet containing ductal cells was collected by centrifugation, and incubated with a biological substrate material. The dissociation solution containing Hank's Balanced Salt Solution (HBSS) (3 ml), collagenase P (5 mg/ml), and DNase 1 (1 Units/μl) was used in a volume of 3 ml per pancreatic tissue (Vpan=about 1.08 mg/mm^3). When the collected cell pellet was incubated with the biological substrate material, three-dimensional pancreatic organoids were prepared by incubation under conditions of 37° C. and 5% CO2 with Matrigel which is a gelatinous protein mixture secreted from the murine Engelbreth-Holm-Swarm (EHS) sarcoma. Resveratrone and resveratrone glucoside were treated using DMSO as a solvent to reach a specific concentration with respect to the culture. After 72 hr, the medium was replaced by a fresh culture medium, and the above treatment was repeated. 12 hr after final treatment, changes of the organoids were recorded using an inverted fluorescence microscope (available from Zeiss) capable of photographing […] fluorescence. […]

SMILES	Apoptotic fraction (%) (MCF10A; 100 μM resveratrone glucoside)	Apoptotic fraction (%) (MCF7; 100 μM resveratrone glucoside)	increase of number of apoptotic cells in cancer cells as compared with normal cells (cancer cells)	TUNEL apoptotic signals (cancer cell MCF7 [1])	TUNEL apoptotic signals (normal cell MCF10A [2])	cytotoxicity during development of zebrafish embryos (zebrafish embryos)	Apoptotic fraction (%) (HCC1954)	Apoptotic fraction (%) (HeLa)	Apoptotic fraction (%) (MCF10A; 50 μM resveratrone)	Apoptotic fraction (%) (MCF7; 50 μM resveratrone)	Apoptotic fraction (%) (NIH3T3)	Apoptotic fraction (%) (SW480)	Apoptotic fraction (%) (SW620)	Cleaved parp presence (cancer cell MCF7 [3])	Cleaved parp presence (normal cell MCF10A [4])	Changes of cell morphology (cancer cell MCF7 [5])	Changes of cell morphology (normal cell MCF10A [6])	apoptosis induction in organoids [7]
CC(=O)/C=C/c1ccc2cc(O[C@@H]3OC(CO)[C@@H](O)C(O)C3O)cc(O)c2c1 (stereo partly drawn) [resveratrone glucoside]	0.7%	15.5%	about 22 times	observed only in the cancer cell MCF7	no effect on normal cells	induced no cytotoxicity	–	–	–	–	–	–	–	–	–	–	–	–
CC(=O)/C=C/c1ccc2cc(O)cc(O)c2c1 [resveratrone]	–	–	–	observed only in the cancer cell MCF7	no effect on normal cells	induced no cytotoxicity	39.3%	20.0%	1.0%	26.0%	2.0%	15.5%	17.4%	observed in the resveratrone-treated cancer cells	not observed in the resveratrone-treated normal cells	showed morphological features of apoptosis	clearly observed irrespective of treatment with resveratrone	showed apoptosis induction
